{"source": "PubChem BioAssay (NCI)", "assay_in_all_cases": "NCI-60 cell line screen, 48 h", "key": {"SK-MEL-5 melanoma": {"tested_on": "SK-MEL-5 melanoma"}, "T-47D breast": {"tested_on": "T-47D breast"}, "UO-31 renal": {"tested_on": "UO-31 renal"}, "NCI-H226 lung": {"tested_on": "NCI-H226 lung"}, "SF-295 CNS": {"tested_on": "SF-295 CNS"}, "MDA-MB-231 breast": {"tested_on": "MDA-MB-231 breast"}, "A498 renal": {"tested_on": "A498 renal"}, "RPMI-8226 leukemia": {"tested_on": "RPMI-8226 leukemia"}, "ACHN renal": {"tested_on": "ACHN renal"}, "SK-MEL-28 melanoma": {"tested_on": "SK-MEL-28 melanoma"}, "NCI/ADR-RES ovarian": {"tested_on": "NCI/ADR-RES ovarian"}, "EKVX NSCLC": {"tested_on": "EKVX NSCLC"}, "OVCAR-3 ovarian": {"tested_on": "OVCAR-3 ovarian"}, "COLO 205 colon": {"tested_on": "COLO 205 colon"}, "HOP-62 NSCLC": {"tested_on": "HOP-62 NSCLC"}, "MOLT-4 leukemia": {"tested_on": "MOLT-4 leukemia"}, "SK-MEL-2 melanoma": {"tested_on": "SK-MEL-2 melanoma"}, "CCRF-CEM leukemia": {"tested_on": "CCRF-CEM leukemia"}, "NCI-H23 lung": {"tested_on": "NCI-H23 lung"}, "TK-10 renal": {"tested_on": "TK-10 renal"}, "HCT-116 colon": {"tested_on": "HCT-116 colon"}, "SF-268 CNS": {"tested_on": "SF-268 CNS"}, "UACC-62 melanoma": {"tested_on": "UACC-62 melanoma"}, "SF-539 CNS": {"tested_on": "SF-539 CNS"}, "OVCAR-4 ovarian": {"tested_on": "OVCAR-4 ovarian"}, "HL-60(TB) leukemia": {"tested_on": "HL-60(TB) leukemia"}, "HOP-92 NSCLC": {"tested_on": "HOP-92 NSCLC"}, "U251 CNS": {"tested_on": "U251 CNS"}, "CAKI-1 renal": {"tested_on": "CAKI-1 renal"}}, "note": "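Test compounds were applied to cells in 96-well plates for 48 hours at 5 doses. GI50: concentration for 50% inhibition of growth. TGI marks complete inhibition of growth.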", "data": [{"smiles": "O=C(CCCCCCNC(=O)C(O)(O)C(F)(F)F)Nc1ncc(-c2ccc(Br)cc2)s1", "values": [{"measurement": "GI50", "setting": "SK-MEL-5 melanoma", "value": 972, "unit": "nM"}, {"measurement": "TGI", "setting": "SK-MEL-5 melanoma", "value": 3430, "unit": "nM"}, {"measurement": "GI50", "setting": "T-47D breast", "value": 808, "unit": "nM"}, {"measurement": "TGI", "setting": "T-47D breast", "value": 25800, "unit": "nM"}, {"measurement": "GI50", "setting": "UO-31 renal", "value": 745, "unit": "nM"}, {"measurement": "TGI", "setting": "UO-31 renal", "value": 4410, "unit": "nM"}, {"measurement": "GI50", "setting": "NCI-H226 lung", "value": 2400, "unit": "nM"}, {"measurement": "TGI", "setting": "NCI-H226 lung", "value": 14400, "unit": "nM"}, {"measurement": "GI50", "setting": "SF-295 CNS", "value": 628, "unit": "nM"}, {"measurement": "TGI", "setting": "SF-295 CNS", "value": 1510, "unit": "nM"}, {"measurement": "GI50", "setting": "MDA-MB-231 breast", "value": 607, "unit": "nM"}, {"measurement": "TGI", "setting": "MDA-MB-231 breast", "value": 2000, "unit": "nM"}, {"measurement": "GI50", "setting": "A498 renal", "value": 130, "unit": "nM"}, {"measurement": "TGI", "setting": "A498 renal", "value": 1650, "unit": "nM"}, {"measurement": "GI50", "setting": "RPMI-8226 leukemia", "value": 452, "unit": "nM"}, {"measurement": "TGI", "setting": "RPMI-8226 leukemia", "value": "> 31800", "unit": "nM"}, {"measurement": "GI50", "setting": "ACHN renal", "value": 908, "unit": "nM"}, {"measurement": "TGI", "setting": "ACHN renal", "value": 4830, "unit": "nM"}, {"measurement": "GI50", "setting": "SK-MEL-28 melanoma", "value": 1120, "unit": "nM"}, {"measurement": "TGI", "setting": "SK-MEL-28 melanoma", "value": "> 31800", "unit": "nM"}, {"measurement": "GI50", "setting": "NCI/ADR-RES ovarian", "value": 1350, "unit": "nM"}, {"measurement": "TGI", "setting": "NCI/ADR-RES ovarian", "value": 7110, "unit": "nM"}, {"measurement": "GI50", "setting": "EKVX NSCLC", "value": 1330, "unit": "nM"}, {"measurement": "TGI", "setting": "EKVX NSCLC", "value": "> 31800", "unit": "nM"}, {"measurement": "GI50", "setting": "OVCAR-3 ovarian", "value": 781, "unit": "nM"}, {"measurement": "TGI", "setting": "OVCAR-3 ovarian", "value": 2910, "unit": "nM"}, {"measurement": "GI50", "setting": "COLO 205 colon", "value": 826, "unit": "nM"}, {"measurement": "TGI", "setting": "COLO 205 colon", "value": 2260, "unit": "nM"}, {"measurement": "GI50", "setting": "HOP-62 NSCLC", "value": 1230, "unit": "nM"}, {"measurement": "TGI", "setting": "HOP-62 NSCLC", "value": 9100, "unit": "nM"}, {"measurement": "GI50", "setting": "MOLT-4 leukemia", "value": 831, "unit": "nM"}, {"measurement": "TGI", "setting": "MOLT-4 leukemia", "value": "> 31800", "unit": "nM"}, {"measurement": "GI50", "setting": "SK-MEL-2 melanoma", "value": 1360, "unit": "nM"}, {"measurement": "TGI", "setting": "SK-MEL-2 melanoma", "value": 18800, "unit": "nM"}, {"measurement": "GI50", "setting": "CCRF-CEM leukemia", "value": 1190, "unit": "nM"}, {"measurement": "TGI", "setting": "CCRF-CEM leukemia", "value": "> 31800", "unit": "nM"}, {"measurement": "GI50", "setting": "NCI-H23 lung", "value": 1210, "unit": "nM"}, {"measurement": "TGI", "setting": "NCI-H23 lung", "value": 6560, "unit": "nM"}, {"measurement": "GI50", "setting": "TK-10 renal", "value": 456, "unit": "nM"}, {"measurement": "TGI", "setting": "TK-10 renal", "value": "> 31800", "unit": "nM"}, {"measurement": "GI50", "setting": "HCT-116 colon", "value": 273, "unit": "nM"}, {"measurement": "TGI", "setting": "HCT-116 colon", "value": 6730, "unit": "nM"}, {"measurement": "GI50", "setting": "SF-268 CNS", "value": 1290, "unit": "nM"}, {"measurement": "TGI", "setting": "SF-268 CNS", "value": 12200, "unit": "nM"}, {"measurement": "GI50", "setting": "UACC-62 melanoma", "value": 675, "unit": "nM"}, {"measurement": "TGI", "setting": "UACC-62 melanoma", "value": 2380, "unit": "nM"}, {"measurement": "GI50", "setting": "SF-539 CNS", "value": 1230, "unit": "nM"}, {"measurement": "TGI", "setting": "SF-539 CNS", "value": "> 31800", "unit": "nM"}, {"measurement": "GI50", "setting": "OVCAR-4 ovarian", "value": 2480, "unit": "nM"}, {"measurement": "TGI", "setting": "OVCAR-4 ovarian", "value": "> 31800", "unit": "nM"}, {"measurement": "GI50", "setting": "HL-60(TB) leukemia", "value": 1620, "unit": "nM"}, {"measurement": "TGI", "setting": "HL-60(TB) leukemia", "value": "> 31800", "unit": "nM"}, {"measurement": "GI50", "setting": "HOP-92 NSCLC", "value": 199, "unit": "nM"}, {"measurement": "TGI", "setting": "HOP-92 NSCLC", "value": 1510, "unit": "nM"}, {"measurement": "GI50", "setting": "U251 CNS", "value": 830, "unit": "nM"}, {"measurement": "TGI", "setting": "U251 CNS", "value": "> 31800", "unit": "nM"}, {"measurement": "GI50", "setting": "CAKI-1 renal", "value": 1220, "unit": "nM"}]}]}
